Results published in ChEMBL document CHEMBL1143192, “Anti-HIV-1 entry optimization of novel imidazopiperidine-tropane CCR5 antagonists” (Bioorg Med Chem Lett, 2008).

Assays:
Format in all cases: ADME, organism-based
[1] = AUC in rat at 30 mg/kg, po; parameters: dose 30 mg/kg, route oral; conditions: plasma
[2] = Clearance in rat at 5 mg/kg, iv; parameters: dose 5 mg/kg, route intravenous; conditions: in vivo
[3] = Cmax in rat at 30 mg/kg, po; parameters: dose 30 mg/kg, route oral; conditions: in vivo
[4] = AUC in rat at 5 mg/kg, iv; parameters: dose 5 mg/kg, route intravenous; conditions: plasma
[5] = Half life in rat at 30 mg/kg, po; parameters: dose 30 mg/kg, route oral; conditions: in vivo
[6] = Oral bioavailability in rat at 30 mg/kg; conditions: in vivo
[7] = Cmax in rat at 5 mg/kg, iv; parameters: dose 5 mg/kg, route intravenous; conditions: in vivo
[8] = Half life in rat at 5 mg/kg, iv; parameters: dose 5 mg/kg, route intravenous; conditions: in vivo

SMILES: CC(=O)N1CCc2c(nc(C)n2[C@@H]2C[C@H]3CC[C@@H](C2)N3CCCN(C(=O)Nc2ccc(C(F)(F)F)cc2)c2ccccc2)C1
- AUC [1]: 8990 ng·h/mL
- clearance [2]: 28.8 mL/min/kg
- Cmax [3]: 540 ng/mL
- AUC [4]: 2890 ng·h/mL
- half-life [5]: 7.2 h
- bioavailability [6]: 52%
- Cmax [7]: 860 ng/mL
- half-life [8]: 10.7 h
